Measurements as given in ChEMBL document CHEMBL5291721, “A preclinical secondary pharmacology resource illuminates target-adverse drug reaction associations of marketed drugs” (Nat Commun, 2023).

How the values were obtained:
Adenosine receptor A1 = target: T1, Adenosine receptor A1 (Homo sapiens, UniProt P30542)
T1 sequence (P30542 whole entry): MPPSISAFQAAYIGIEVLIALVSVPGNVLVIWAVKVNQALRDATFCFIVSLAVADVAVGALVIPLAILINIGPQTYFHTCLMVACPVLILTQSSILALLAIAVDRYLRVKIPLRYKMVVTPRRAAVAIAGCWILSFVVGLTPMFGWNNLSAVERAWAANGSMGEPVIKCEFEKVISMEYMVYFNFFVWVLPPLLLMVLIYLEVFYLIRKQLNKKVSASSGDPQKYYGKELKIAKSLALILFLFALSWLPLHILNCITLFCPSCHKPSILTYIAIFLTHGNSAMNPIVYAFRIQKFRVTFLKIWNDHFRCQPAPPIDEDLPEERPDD

[1] = target: T2, Alpha-2C adrenergic receptor (Homo sapiens, UniProt P18825); type: functional
T2 sequence (P18825 whole entry): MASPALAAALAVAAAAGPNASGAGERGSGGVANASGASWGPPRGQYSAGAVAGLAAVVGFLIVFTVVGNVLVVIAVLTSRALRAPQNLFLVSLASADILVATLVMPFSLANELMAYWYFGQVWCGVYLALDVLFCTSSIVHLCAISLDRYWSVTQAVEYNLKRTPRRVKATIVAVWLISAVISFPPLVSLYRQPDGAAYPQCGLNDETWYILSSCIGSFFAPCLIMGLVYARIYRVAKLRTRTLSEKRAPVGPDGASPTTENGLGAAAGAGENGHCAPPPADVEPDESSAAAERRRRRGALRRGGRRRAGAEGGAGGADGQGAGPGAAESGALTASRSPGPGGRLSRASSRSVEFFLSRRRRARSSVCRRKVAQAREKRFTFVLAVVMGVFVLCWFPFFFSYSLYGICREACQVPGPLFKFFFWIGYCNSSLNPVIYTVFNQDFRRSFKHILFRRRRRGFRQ

Vasopressin V2 receptor = Vasopressin V2 receptor (Homo sapiens, UniProt P30518)
Vasopressin V2 receptor, sequence (P30518 whole entry): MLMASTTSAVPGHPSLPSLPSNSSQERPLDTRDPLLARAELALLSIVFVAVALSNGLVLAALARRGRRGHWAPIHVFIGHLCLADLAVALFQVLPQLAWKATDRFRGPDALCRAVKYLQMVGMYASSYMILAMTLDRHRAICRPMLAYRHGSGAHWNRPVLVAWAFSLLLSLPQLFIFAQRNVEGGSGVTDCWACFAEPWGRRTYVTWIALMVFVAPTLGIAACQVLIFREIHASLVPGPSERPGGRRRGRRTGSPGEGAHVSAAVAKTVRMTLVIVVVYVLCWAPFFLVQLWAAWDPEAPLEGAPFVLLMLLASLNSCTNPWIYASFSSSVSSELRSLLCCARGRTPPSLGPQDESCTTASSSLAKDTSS

[2] = target: T3, Cholecystokinin receptor type A (Homo sapiens, UniProt P32238)
T3 sequence (P32238 whole entry): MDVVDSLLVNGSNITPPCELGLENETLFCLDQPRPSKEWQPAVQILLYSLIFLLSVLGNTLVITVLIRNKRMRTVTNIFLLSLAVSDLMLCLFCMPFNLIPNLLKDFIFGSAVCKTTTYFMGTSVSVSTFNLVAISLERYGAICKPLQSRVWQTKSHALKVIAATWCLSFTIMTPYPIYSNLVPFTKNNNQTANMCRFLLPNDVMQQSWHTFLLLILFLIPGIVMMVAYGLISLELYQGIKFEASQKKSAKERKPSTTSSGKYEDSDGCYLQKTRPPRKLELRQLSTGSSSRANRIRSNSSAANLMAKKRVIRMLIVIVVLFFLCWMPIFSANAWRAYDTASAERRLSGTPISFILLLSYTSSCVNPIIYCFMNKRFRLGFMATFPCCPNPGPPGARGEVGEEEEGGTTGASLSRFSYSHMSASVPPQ

[3] = target: T4, Gastrin/cholecystokinin type B receptor (Homo sapiens, UniProt P32239)
T4 sequence (P32239 whole entry): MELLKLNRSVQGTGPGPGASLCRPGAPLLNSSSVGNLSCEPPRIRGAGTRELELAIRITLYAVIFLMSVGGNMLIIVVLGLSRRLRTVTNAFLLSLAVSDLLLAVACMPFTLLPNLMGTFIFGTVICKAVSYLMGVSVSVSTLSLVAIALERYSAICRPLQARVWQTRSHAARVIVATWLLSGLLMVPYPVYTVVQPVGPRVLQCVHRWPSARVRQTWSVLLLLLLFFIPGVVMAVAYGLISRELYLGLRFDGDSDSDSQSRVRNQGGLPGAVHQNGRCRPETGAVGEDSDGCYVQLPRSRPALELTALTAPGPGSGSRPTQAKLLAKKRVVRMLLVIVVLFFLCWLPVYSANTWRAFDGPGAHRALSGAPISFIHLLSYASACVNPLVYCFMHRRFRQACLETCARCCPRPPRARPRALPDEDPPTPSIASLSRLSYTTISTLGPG

[4] = target: Neuronal acetylcholine receptor subunit alpha-4 (Homo sapiens, UniProt P43681)
Neuronal acetylcholine receptor subunit alpha-4, sequence (P43681 whole entry): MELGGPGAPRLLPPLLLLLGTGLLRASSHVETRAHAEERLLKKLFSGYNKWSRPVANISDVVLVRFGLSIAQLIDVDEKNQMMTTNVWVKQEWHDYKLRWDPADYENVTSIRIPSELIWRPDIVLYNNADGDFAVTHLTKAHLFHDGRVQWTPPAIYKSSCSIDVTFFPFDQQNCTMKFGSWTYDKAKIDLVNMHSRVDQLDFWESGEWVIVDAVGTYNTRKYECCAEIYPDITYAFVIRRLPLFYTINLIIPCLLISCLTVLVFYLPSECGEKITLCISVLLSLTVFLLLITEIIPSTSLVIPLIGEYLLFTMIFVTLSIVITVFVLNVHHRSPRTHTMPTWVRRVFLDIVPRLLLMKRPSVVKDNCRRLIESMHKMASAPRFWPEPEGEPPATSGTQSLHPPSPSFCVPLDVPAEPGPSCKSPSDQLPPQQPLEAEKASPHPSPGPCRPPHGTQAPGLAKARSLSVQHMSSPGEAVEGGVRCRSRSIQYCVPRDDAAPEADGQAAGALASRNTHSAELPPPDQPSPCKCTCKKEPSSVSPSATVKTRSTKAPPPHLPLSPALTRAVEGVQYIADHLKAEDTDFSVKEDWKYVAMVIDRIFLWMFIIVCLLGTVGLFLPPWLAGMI

Histamine H2 receptor = Histamine H2 receptor (Homo sapiens, UniProt P25021); type: functional, cell-based
Histamine H2 receptor, sequence (P25021 whole entry): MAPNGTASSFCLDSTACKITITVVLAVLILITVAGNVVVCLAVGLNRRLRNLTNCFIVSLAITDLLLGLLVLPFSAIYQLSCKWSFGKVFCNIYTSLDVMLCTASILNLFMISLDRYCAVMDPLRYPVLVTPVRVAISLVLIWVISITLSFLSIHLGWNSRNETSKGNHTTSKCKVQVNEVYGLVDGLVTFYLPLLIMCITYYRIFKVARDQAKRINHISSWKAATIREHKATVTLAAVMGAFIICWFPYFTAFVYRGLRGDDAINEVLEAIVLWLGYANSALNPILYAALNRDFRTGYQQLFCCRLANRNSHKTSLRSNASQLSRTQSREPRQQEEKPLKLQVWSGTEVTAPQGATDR

[5] = target: T5, 5-hydroxytryptamine receptor 1A (Homo sapiens, UniProt P08908); type: functional, cell-based
T5 sequence (P08908 whole entry): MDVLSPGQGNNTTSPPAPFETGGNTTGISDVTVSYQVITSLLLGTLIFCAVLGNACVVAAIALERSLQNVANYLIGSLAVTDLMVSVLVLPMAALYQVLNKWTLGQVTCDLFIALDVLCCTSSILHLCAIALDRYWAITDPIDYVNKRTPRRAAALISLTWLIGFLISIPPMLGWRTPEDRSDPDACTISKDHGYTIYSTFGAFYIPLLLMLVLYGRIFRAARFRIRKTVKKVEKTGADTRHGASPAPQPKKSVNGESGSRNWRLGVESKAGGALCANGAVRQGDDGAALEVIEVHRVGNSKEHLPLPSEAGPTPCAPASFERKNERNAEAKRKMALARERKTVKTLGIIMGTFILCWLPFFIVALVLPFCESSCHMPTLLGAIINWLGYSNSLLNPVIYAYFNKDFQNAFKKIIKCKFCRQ

[6] = target: 3',5'-cyclic-AMP phosphodiesterase 4D (Homo sapiens, UniProt Q08499); type: functional
3',5'-cyclic-AMP phosphodiesterase 4D, sequence (Q08499 whole entry): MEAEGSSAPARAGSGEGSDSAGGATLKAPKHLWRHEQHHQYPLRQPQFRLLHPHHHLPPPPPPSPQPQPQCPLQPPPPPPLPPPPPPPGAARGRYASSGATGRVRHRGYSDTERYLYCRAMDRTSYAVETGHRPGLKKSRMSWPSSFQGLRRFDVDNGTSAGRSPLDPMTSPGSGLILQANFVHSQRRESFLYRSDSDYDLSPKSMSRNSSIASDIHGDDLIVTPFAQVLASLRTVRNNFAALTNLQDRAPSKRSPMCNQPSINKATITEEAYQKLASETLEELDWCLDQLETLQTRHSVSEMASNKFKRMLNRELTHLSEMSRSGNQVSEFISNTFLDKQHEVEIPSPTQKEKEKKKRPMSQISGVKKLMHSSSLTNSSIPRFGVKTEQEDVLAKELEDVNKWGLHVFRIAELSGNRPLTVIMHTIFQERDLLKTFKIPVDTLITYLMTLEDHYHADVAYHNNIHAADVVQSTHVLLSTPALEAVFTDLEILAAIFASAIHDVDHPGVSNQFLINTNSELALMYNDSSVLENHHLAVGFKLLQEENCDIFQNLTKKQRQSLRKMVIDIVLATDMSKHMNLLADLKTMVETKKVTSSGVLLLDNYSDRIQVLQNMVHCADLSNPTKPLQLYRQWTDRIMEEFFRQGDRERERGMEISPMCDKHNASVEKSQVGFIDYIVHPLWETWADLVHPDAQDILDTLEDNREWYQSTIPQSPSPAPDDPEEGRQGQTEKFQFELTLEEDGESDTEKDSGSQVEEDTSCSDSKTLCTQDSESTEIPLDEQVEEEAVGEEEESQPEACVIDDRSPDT

[7] = target: cGMP-inhibited 3',5'-cyclic phosphodiesterase 3A (Homo sapiens, UniProt Q14432); type: functional
cGMP-inhibited 3',5'-cyclic phosphodiesterase 3A, sequence (Q14432 whole entry): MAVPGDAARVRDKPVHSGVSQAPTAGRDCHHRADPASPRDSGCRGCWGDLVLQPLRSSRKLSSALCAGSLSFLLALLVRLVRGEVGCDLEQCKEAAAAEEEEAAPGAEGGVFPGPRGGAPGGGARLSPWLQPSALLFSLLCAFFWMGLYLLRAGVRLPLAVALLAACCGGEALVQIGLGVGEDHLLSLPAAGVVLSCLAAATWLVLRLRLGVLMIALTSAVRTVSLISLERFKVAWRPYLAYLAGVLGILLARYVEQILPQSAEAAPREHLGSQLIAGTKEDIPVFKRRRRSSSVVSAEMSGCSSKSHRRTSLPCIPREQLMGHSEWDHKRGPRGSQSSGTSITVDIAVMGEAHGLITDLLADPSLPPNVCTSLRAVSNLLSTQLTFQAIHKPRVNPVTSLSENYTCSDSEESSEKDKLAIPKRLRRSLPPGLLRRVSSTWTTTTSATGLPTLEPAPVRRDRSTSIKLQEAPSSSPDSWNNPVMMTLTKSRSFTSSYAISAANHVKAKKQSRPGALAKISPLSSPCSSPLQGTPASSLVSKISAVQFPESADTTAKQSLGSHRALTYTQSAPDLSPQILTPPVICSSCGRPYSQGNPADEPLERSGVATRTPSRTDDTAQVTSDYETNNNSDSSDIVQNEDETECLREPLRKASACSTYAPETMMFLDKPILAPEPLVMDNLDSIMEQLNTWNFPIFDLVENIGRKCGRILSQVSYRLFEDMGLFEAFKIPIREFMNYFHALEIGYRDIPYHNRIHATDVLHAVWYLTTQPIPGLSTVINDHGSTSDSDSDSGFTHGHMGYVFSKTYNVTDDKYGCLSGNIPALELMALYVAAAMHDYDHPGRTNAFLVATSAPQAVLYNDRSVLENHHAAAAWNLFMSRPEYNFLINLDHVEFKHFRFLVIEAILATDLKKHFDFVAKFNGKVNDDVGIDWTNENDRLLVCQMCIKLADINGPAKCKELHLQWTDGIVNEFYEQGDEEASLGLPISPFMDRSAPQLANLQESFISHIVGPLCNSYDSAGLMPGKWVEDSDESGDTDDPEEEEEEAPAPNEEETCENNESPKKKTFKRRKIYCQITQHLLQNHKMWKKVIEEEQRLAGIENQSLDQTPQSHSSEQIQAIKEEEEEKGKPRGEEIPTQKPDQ
Note: assay procedure not described here.

| Compound | AC50 (Adenosine receptor A1) [µM] | AC50 [1] [µM] | AC50 (Vasopressin V2 receptor) [µM] | AC50 [2] [µM] | AC50 [3] [µM] | AC50 [4] [µM] | AC50 (Histamine H2 receptor) [µM] | AC50 [5] [µM] | AC50 [6] [µM] | AC50 [7] [µM] |
| --- | --- | --- | --- | --- | --- | --- | --- | --- | --- | --- |
| C[N+]1(C)CCC(=C(c2ccccc2)c2ccccc2)CC1 | > 30 | > 10 | > 30 | > 30 | > 30 | 16.2 | > 10 | > 10 | > 30 | > 30 |
| C[N+](C)(C)CCOP(=O)([O-])OC[C@H](O)CO | > 30 | > 30 | > 30 | > 30 | > 30 | > 30 | > 30 | > 30 | > 30 | > 30 |
| CN(C)Cc1nnc2n1-c1ccc(Cl)cc1C(c1ccccc1)=NC2 [ADINAZOLAM] | > 10 | > 10 | > 10 | > 10 |  | > 10 | > 10 | > 10 | > 30 | > 30 |
| CN(C)C/C=C/C(=O)Nc1cc2c(Nc3ccc(F)c(Cl)c3)ncnc2cc1O[C@H]1CCOC1 [AFATINIB] | > 30 | > 30 | > 30 | 11 | > 30 | > 30 | > 30 | > 30 | > 30 | > 30 |
| Cc1ccccc1-n1c(CF)nc2ccc(N)cc2c1=O [AFLOQUALONE] | > 30 | > 10 | > 30 | > 30 | > 30 | > 30 | > 30 | > 10 | 13 | > 30 |
| CCC1(c2ccc(N)cc2)CCC(=O)NC1=O (stereo not drawn) [AMINOGLUTETHIMIDE] | > 30 | > 30 | > 30 | > 30 | > 30 | > 30 | > 30 | > 30 | 9.5 | 10 |
| CC1=C(C(=O)OC(C)C)C(c2cccc([N+](=O)[O-])c2)C(C(=O)OC2CN(C(c3ccccc3)c3ccccc3)C2)=C(N)N1 (stereo not drawn) [AZELNIDIPINE] | > 30 | 13 | > 30 | > 30 | > 30 | > 30 | > 30 | > 30 | 6.6 | > 30 |
| CC(Cc1cccc(C(F)(F)F)c1)NCCOC(=O)c1ccccc1 (stereo not drawn) [BENFLUOREX] | > 30 | 2.41 | > 30 | > 30 | > 30 | > 30 | > 30 | 4.3 |  |  |
| CCOC(=O)c1ccc(N)cc1 [BENZOCAINE] | > 10 | > 10 | > 10 | > 10 |  | > 10 | > 10 | > 10 | > 30 | > 30 |
| CC(C)(Oc1ccc(CCNC(=O)c2ccc(Cl)cc2)cc1)C(=O)O [BEZAFIBRATE] | > 10 | > 10 | > 10 | > 10 |  | > 10 | > 10 | > 30 | > 30 | > 30 |
| O=C(O)COCCN1CCN(C(c2ccccc2)c2ccc(Cl)cc2)CC1 (stereo not drawn) [CETIRIZINE] | > 30 | > 10 | > 30 | > 30 | > 30 | > 10 |  | > 10 | > 30 | > 30 |
| C/C=C(/C(=C/C)c1ccc(O)cc1)c1ccc(O)cc1 [DIENESTROL] | > 30 | > 10 | > 10 | > 10 |  | > 10 | > 10 | > 10 | > 30 | > 30 |
| COc1ccc([C@@H]2CC(=O)c3c(O)cc(O)cc3O2)cc1O [HESPERETIN] | > 10 | > 10 | > 10 | > 10 |  | > 10 | > 30 | > 10 | 30 | 21 |
| CN(C)CCCN1c2ccccc2CCc2ccccc21 [IMIPRAMINE] | > 30 | 2.1 | > 30 | > 30 | > 30 |  | > 10 | > 10 | > 10 | > 10 |
| CCC[C@@H]1C[C@@H](C(=O)N[C@@H]([C@H]2O[C@H](SC)[C@H](O)[C@@H](O)[C@H]2O)[C@@H](C)O)N(C)C1 [LINCOMYCIN] | > 10 | > 10 | > 10 | > 10 |  | > 10 | > 10 | > 30 | > 30 | > 30 |
| Cc1ccccc1N1C(=O)c2cc(S(N)(=O)=O)c(Cl)cc2NC1C (stereo not drawn) [METOLAZONE] | > 10 | > 10 | > 10 | > 10 |  | > 10 | > 10 | > 10 | > 30 | > 30 |
| O=C(O)c1cccnc1Nc1cccc(C(F)(F)F)c1 [NIFLUMIC ACID] | > 10 | > 10 | > 10 | > 10 |  | > 10 | > 10 | > 10 | > 30 | > 30 |
| O=C1c2ccccc2C(=O)C1c1ccccc1 [PHENINDIONE] | > 10 | > 10 | > 10 | > 10 |  | > 10 | > 10 | > 30 | > 30 | > 30 |
| CC(C)c1cccc(C(C)C)c1O [PROPOFOL] | > 30 | > 30 |  | > 30 |  | > 30 |  | > 30 | > 30 | > 30 |
| C[C@]12C=CC(=O)C=C1CC[C@@H]1[C@@H]2CC[C@]2(C)OC(=O)CC[C@@H]12 [TESTOLACTONE] | > 10 | > 10 | > 10 | > 10 |  | > 10 | > 10 | > 30 | > 30 | > 30 |
